Source: patent US8912207B2, “2-aldoximino-5-fluoropyrimidine derivatives” (Dow AgroSciences, LLP., priority 2009, dated 2014)
Read-outs that look alike come from different tables or passages of the source.

Columns and labels:
[1] = system: Mycosphaerella graminicola; anamorph: Septoria tritici; Bayer code SEPTTR; assay: Fungicidal activity: leaf blotch of wheat, one-day protectant (1DP) and three-day curative (3DC) tests on wheat plants; format: in vivo, Septoria tritici on wheat plants (variety Yuma); conditions: Zymoseptoria tritici, rating of % disease control vs untreated inoculated plants
Experimental: Evaluation of Fungicidal Activity: Leaf Blotch of Wheat (Mycosphaerella graminicola; anamorph: Septoria tritici; Bayer code […]) Wheat plants (variety Yuma) were grown from seed in a greenhouse in 50% mineral soil/50% soil-less Metro mix until the first leaf was fully emerged, with 7-10 seedlings per pot. These plants were inoculated with an aqueous spore suspension of Septoria tritici either prior to or after fungicide treatments. After inoculation the plants were kept in 100% relative humidity (one day in a dark dew chamber followed by two to three days in a lighted dew chamber) to permit spores to germinate and infect the leaf. The plants were then transferred to a greenhouse for disease to develop. The following table presents the activity of typical compounds of the present disclosure when evaluated in these experiments. The effectiveness of the test compounds in controlling disease was determined by assessing the severity of disease on treated plants, then converting the severity to percent control based on the level of disease on untreated, inoculated plants. In each case of Table III the rating scale is as follows: […]

[2] = 24 h, one-day protectant, read-out: SEPTTR 25 ppm 1DP
[3] = 24 h, one-day protectant, read-out: SEPTTR 100 ppm 1DP
[4] = 72 h, three-day curative, read-out: SEPTTR 25 ppm 3DC
[5] = 72 h, three-day curative, read-out: SEPTTR 100 ppm 3DC

| melting point | SMILES | pest or weed control at 25 ppm [1, 2] | pest or weed control at 100 ppm [1, 3] | pest or weed control at 25 ppm [1, 4] | pest or weed control at 100 ppm [1, 5] |
| --- | --- | --- | --- | --- | --- |
| 99 to 100 °C | CC=NOc1ncc(F)c(NCc2ccccc2F)n1 [Compound 20] | 26 to 50% | 51 to 75% | 51 to 75% | 76 to 100% |
| 116 to 117 °C | CC=NOc1ncc(F)c(NCc2ccc(Cl)cc2)n1 [Compound 29] | 0 to 25% | 26 to 50% | 0 to 25% | 51 to 75% |
| 224 to 228 °C (dec.) | CC(C)C=NOc1ncc(F)c(N(C)Cc2ccc(Cl)cc2)n1 [Compound 45] | 0 to 25% | 0 to 25% | 26 to 50% | 0 to 25% |
| 78 to 81 °C | CN(Cc1ccccc1)c1nc(ON=Cc2ccc(Cl)cc2)ncc1F [Compound 37] | 0 to 25% | 51 to 75% | 26 to 50% | 76 to 100% |
| 106 to 107 °C | COc1ccc(C=NOc2ncc(F)c(N(C)C)n2)cc1 [Compound 53] | 0 to 25% | 0 to 25% | 0 to 25% | 0 to 25% |
| – | CC=NOc1ncc(F)c(NCc2ccccc2)n1 [Compound 24] | 0 to 25% | 0 to 25% | 0 to 25% | 26 to 50% |
| 247 to 253 °C (dec.) | Cc1ccc(C=NOc2ncc(F)c(/N=C/N(C)C)n2)cc1 [Compound 15] | 76 to 100% | 76 to 100% | 76 to 100% | 76 to 100% |
| 122 to 124 °C | CC=NOc1ncc(F)c(N(C)C)n1 [Compound 54] | 0 to 25% | 0 to 25% | 0 to 25% | 0 to 25% |
| 141 to 142 °C | COc1ccc(C=NOc2ncc(F)c(NCc3ccc(Cl)cc3)n2)cc1 [Compound 28] | 0 to 25% | 26 to 50% | 0 to 25% | 0 to 25% |
| – | COc1ccc(C=NOc2ncc(F)c(N(C)Cc3ccc(Cl)cc3)n2)cc1 [Compound 43] | 0 to 25% | 0 to 25% | 26 to 50% | 26 to 50% |
| 151 to 153 °C | Nc1nc(ON=Cc2ccccc2)ncc1F [Compound 6] | 76 to 100% | 76 to 100% | 76 to 100% | 76 to 100% |
| 220 to 230 °C (dec.) | Nc1nc(ON=Cc2ccccc2Cl)ncc1F [Compound 5, 2-chlorobenzaldehyde O-(4-amino-5-fluoropyrimidin-2-yl)oxime] | 76 to 100% | 76 to 100% | 76 to 100% | 76 to 100% |
| 105 to 107 °C | CC(C)C=NOc1ncc(F)c(N)n1 [Compound 7] | 76 to 100% | 76 to 100% | 76 to 100% | 76 to 100% |
| 201 to 220 °C (dec.) | Cc1ccc(C=NOc2ncc(F)c(N)n2)cc1 [Compound 11] | 76 to 100% | 76 to 100% | 76 to 100% | 76 to 100% |
| 79 to 83 °C | COc1ccc(CN(C)c2nc(ON=Cc3ccc(Cl)cc3)ncc2F)cc1 [Compound 47] | 26 to 50% | 26 to 50% | 26 to 50% | 51 to 75% |
